21 molecules from US10407407B2, “Benzoimidazole derivatives as PAD4 inhibitors” (GLAXOSMITHKLINE INTELLECTUAL PROPERTY DEVELOPMENT LIMITED, priority 2015, dated 2019) can be followed below.

The target of assay [1] is T1, Recombinant human PAD4 (residues 1-663) (Homo sapiens, UniProt Q9UM07).
T1 construct: Recombinant human PAD4 (residues 1-663) was expressed in E. coli as an N-terminal GST-tagged fusion protein; GST (N, cleaved yes); made in house; host or cells: E. coli
Kind of assay: PAD4 enzyme assay (FLINT NH3 release, BAEE substrate; conditions A or B). Type of assay: biochemical. The settings on record: PAD4 enzyme assay above or similar assays; read-out: mean pIC50 (converted). The protocol:
During purification of the protein, the GST tag was removed by cleavage with PreScission Protease (GE Healthcare). Activity of the final PAD4 enzyme and batch consistency was determined by employing the enzyme in the FLINT NH3 release assay in the presence of N-a-benzoyl-L-arginine ethyl ester (BAEE) substrate and measuring the levels of NH3 release at a known substrate/enzyme concentration.
(§1) 8 μl of PAD4 enzyme diluted to an assay concentration of 75 nm in assay buffer (a): (100 mM HEPES, 50 mM NaCl, 2 mM DTT and 0.6 mg/ml BSA pH 8), or in assay buffer (b): (100 mM HEPES, 50 mM NaCl, 2 mM DTT, 7.5% glycerol and 1.5 mM CHAPS pH 8), and added to wells containing 0.1 μl of various concentrations of compound or DMSO vehicle (0.8% final) in a Greiner high volume 384 well black plate. Following 30 mins pre-incubation at rt, the reaction was initiated by the addition of 4 μl of substrate buffer containing 3 mM N-a-benzoyl-L-arginine ethyl ester (BAEE), 100 mM HEPES, 50 mM NaCl, 600 uM CaCl2 (2H2O) and 2 mM DTT, pH 8.0. The reaction was stopped after 100 mins with the addition of 38 μl stop/detection buffer containing 50 mM EDTA, 2.6 mM phthalaldehyde and 2.6 mM DTT.
as §1, with “of 30 nM” for “of 75 nm”, “buffer” for “buffer (a):”, “BSA” for “BSA pH 8), or in assay buffer (b): (100 mM HEPES, 50 mM NaCl, 2 mM DTT, 7.5% glycerol and 1.5 mM CHAPS”, “after 60” for “after 100”

For assay [2], the target named is T2, Recombinant human PAD2 (residues 1-665) (Homo sapiens, UniProt Q9Y2J8).
T2 construct: Recombinant human PAD2 (residues 1-665) was expressed in baculovirus-infected Sf9 insect cells; 6His-FLAG (N); made in house; host or cells: baculovirus-infected Sf9 insect cells
Kind of assay: PAD2 enzyme assay (FLINT NH3 release, BAEE substrate). Format: biochemical. The note with it: PAD2 enzyme assay above or similar assays; to assess selectivity for PAD4 over PAD2; read-out: mean pIC50 (converted). How it is done:
Activity of the final product was determined using a FLINT NH3 release assay.
8 μl of PAD2 enzyme diluted to an assay concentration of 30 nM in assay buffer (100 mM HEPES, 50 mM NaCl, 2 mM DTT, 7.5% glycerol and 1.5 mM CHAPS pH 8), and added to wells containing 0.1 μl of various concentrations of compound or DMSO vehicle (0.8% final) in a Greiner high volume 384 well black plate. […] The reaction was stopped after 90 mins with the addition of […] stop/detection buffer containing 50 mM EDTA, 2.6 mM phthalaldehyde and 2.6 mM DTT.

SMILES strings stand for the structures. Values joined by “and” are separate entries in the source; they are usually repeats but may differ in a detail not shown here. Equal values may be shown once.

T2 sequence (Q9Y2J8 whole entry, the tested form may be a part): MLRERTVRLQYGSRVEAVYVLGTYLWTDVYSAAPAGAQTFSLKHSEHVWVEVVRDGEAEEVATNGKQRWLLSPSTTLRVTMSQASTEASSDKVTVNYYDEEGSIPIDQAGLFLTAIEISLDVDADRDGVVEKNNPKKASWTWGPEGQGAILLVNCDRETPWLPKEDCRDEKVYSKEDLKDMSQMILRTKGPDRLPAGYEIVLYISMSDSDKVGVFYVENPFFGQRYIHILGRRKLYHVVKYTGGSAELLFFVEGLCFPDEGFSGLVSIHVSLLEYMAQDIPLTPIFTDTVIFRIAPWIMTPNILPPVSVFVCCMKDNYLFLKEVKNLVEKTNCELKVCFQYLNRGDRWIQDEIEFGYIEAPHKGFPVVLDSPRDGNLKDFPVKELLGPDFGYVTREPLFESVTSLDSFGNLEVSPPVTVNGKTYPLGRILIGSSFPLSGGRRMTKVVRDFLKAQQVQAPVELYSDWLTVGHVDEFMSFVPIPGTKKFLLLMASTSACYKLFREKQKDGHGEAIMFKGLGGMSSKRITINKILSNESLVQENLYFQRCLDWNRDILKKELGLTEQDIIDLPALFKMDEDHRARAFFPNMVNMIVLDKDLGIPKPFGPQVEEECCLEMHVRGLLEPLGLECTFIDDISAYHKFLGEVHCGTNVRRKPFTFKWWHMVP
T1 sequence (Q9UM07 whole entry, the tested form may be a part): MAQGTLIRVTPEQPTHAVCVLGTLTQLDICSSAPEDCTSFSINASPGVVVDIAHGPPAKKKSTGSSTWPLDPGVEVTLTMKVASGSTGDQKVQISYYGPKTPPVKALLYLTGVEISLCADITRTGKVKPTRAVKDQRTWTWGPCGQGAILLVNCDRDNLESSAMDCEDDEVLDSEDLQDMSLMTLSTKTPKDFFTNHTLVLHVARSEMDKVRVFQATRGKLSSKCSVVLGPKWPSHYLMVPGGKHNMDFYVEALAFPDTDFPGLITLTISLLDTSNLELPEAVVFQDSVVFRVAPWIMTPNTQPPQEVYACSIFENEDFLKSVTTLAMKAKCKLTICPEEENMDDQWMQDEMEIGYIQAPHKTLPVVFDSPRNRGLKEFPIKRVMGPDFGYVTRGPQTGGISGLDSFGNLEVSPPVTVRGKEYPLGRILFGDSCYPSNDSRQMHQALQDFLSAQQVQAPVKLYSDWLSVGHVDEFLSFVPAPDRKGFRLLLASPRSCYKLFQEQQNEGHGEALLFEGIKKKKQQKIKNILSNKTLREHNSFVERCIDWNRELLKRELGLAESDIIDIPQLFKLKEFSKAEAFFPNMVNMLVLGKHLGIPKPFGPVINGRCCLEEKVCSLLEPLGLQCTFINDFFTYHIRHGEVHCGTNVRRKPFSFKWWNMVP

As to `Cn1c(-c2cc3ccccc3n2Cc2cccnc2)nc2cc(C(=O)N3CCC[C@@H](N)C3)ccc21` [Example 15, (3R)-1-({1-Methyl-2-[1-(3-pyridinylmethyl)-1H-indol-2-yl]-1H-benzimidazol-5-yl}carbonyl)-3-piperidinamine], in assay [1], the IC50 was 0.0398 to 0.398 µM and 0.398 µM. Still for that read-out and setting: next, `Cn1cc(Cn2c(-c3nc4cc(C(=O)N5CCC[C@@H](N)C5)ccc4n3C)cc3ccccc32)cn1` [Example 20b, (3R)-1-[(1-Methyl-2-{1-[(1-methyl-1H-pyrazol-4-yl)methyl]-1H-indol-2-yl}-1H-benzimidazol-5-yl)carbonyl]-3-piperidinamine]: 0.0398 to 0.398 µM and 0.398 µM; `Cn1c(-c2cc3ccccc3n2Cc2ccccc2)nc2cc(C(=O)N3CCC[C@@H](N)C3)ccc21` [Example 24, (3R)-1-({1-Methyl-2-[1-(phenylmethyl)-1H-indol-2-yl]-1H-benzimidazol-5-yl}carbonyl)-3-piperidinamine]: 0.0398 to 0.398 µM and 0.158 µM. As to `CCn1c(-c2nc3cc(C(=O)N4CCC[C@@H](N)C4)cc(OC(F)(F)F)c3n2C)cc2ccccc21` [Example 34, (R)-(3-Aminopiperidin-1-yl)(2-(1-ethyl-1H-indol-2-yl)-1-methyl-7-(trifluoromethoxy)-1H-benzo[d]imidazol-5-yl)methanone], in assay [2], the IC50 is not below 10 µM. `Cn1c(-c2nc3cc(C(=O)N4CCC[C@@H](N)C4)ccc3n2C)cc2ccccc21` [Example 37, (R)-(3-Aminopiperidin-1-yl)(1-methyl-2-(1-methyl-1H-indol-2-yl)-1H-benzo[d]imidazol-5-yl)methanone]: the IC50 in assay [2] was more than 79.4 µM. The same measure, in the same setting: next, `CCn1c(-c2nc3cc(C(=O)N4CCC[C@@H](N)C4)ccc3n2CCN)cc2ccccc21` [Example 48, (R)-(1-(2-Aminoethyl)-2-(1-ethyl-1H-indol-2-yl)-1H-benzo[d]imidazol-5-yl)(3-aminopiperidin-1-yl)methanone]: not below 10 µM; `COc1cc(C(=O)N2CC[C@@H](O)[C@@H](N)C2)cc2nc(-c3cc4ccccc4n3CC(F)(F)F)n(C)c12` [Example 58a, ((3S,4R)-3-Amino-4-hydroxypiperidin-1-yl)(7-methoxy-1-methyl-2-(1-(2,2,2-trifluoroethyl)-1H-indol-2-yl)-1H-benzo[d]imidazol-5-yl)methanone]: not below 10 µM.

For `COc1cc(C(=O)N2CC[C@H](O)[C@H](N)C2)cc2nc(-c3cc4ccccc4n3CC(F)(F)F)n(C)c12` [Example 59, ((3R,4S)-3-Amino-4-hydroxypiperidin-1-yl)(7-methoxy-1-methyl-2-(1-(2,2,2-trifluoroethyl)-1H-indol-2-yl)-1H-benzo[d]imidazol-5-yl)methanone], in assay [2], the IC50 is not below 10 µM. Take `CCn1c(-c2nc3cc(C(=O)N4CCC[C@@H](N)C4)cc(N(C)C)c3n2C)cc2ccccc21` [Example 63, (R)-(3-Aminopiperidin-1-yl)(7-(dimethylamino)-2-(1-ethyl-1H-indol-2-yl)-1-methyl-1H-benzo[d]imidazol-5-yl)methanone]: the IC50 in assay [2] is more than 79.4 µM.

With `Cn1c(-c2cc3ccccc3n2CC2CC2)nc2cc(C(=O)N3CC[C@@H](O)[C@@H](N)C3)ccc21` [Example 65, ((3S,4R)-3-Amino-4-hydroxypiperidin-1-yl)(2-(1-(cyclopropylmethyl)-1H-indol-2-yl)-1-methyl-1H-benzo[d]imidazol-5-yl)methanone], the IC50 in assay [1] is 0.0398 to 0.398 µM and 0.158 µM; in assay [2] it was more than 79.4 µM.

`CCn1c(-c2nc3cc(C(=O)N4CC[C@@H](O)[C@@H](N)C4)cc(OC)c3n2C)cc2ccccc21` [Example 67, ((3S,4R)-3-Amino-4-hydroxypiperidin-1-yl)(2-(1-ethyl-1H-indol-2-yl)-7-methoxy-1-methyl-1H-benzo[d]imidazol-5-yl)methanone]: in assay [2], the IC50 was more than 79.4 µM.

Take `CCn1c(-c2nc3cc(C(=O)N4CCC[C@@H](N)C4)cc(NC)c3n2C)cc2ccccc21` [Example 68, (R)-(3-Aminopiperidin-1-yl)(2-(1-ethyl-1H-indol-2-yl)-1-methyl-7-(methylamino)-1H-benzo[d]imidazol-5-yl)methanone]: the IC50 in assay [2] was more than 79.4 µM. Take `COc1cc(C(=O)N2CCC[C@@H](N)C2)cc2nc(-c3cc4ccccc4n3CC3CCOCC3)n(C)c12` [Example 70, (R)-(3-Aminopiperidin-1-yl)(7-methoxy-1-methyl-2-(1-((tetrahydro-2H-pyran-4-yl)methyl)-1H-indol-2-yl)-1H-benzo[d]imidazol-5-yl)methanone]: the IC50 in assay [2] is more than 79.4 µM. `COc1cc(C(=O)N2CCC[C@@H](N)C2)cc2nc(-c3cc4ccccc4n3CC#N)n(C)c12` [Example 74, (R)-2-(2-(5-(3-Aminopiperidine-1-carbonyl)-7-methoxy-1-methyl-1H-benzo[d]imidazol-2-yl)-1H-indol-1-yl)acetonitrile]: the IC50 in assay [2] was not below 10 µM. As for `CCc1cc(C(=O)N2CCC[C@@H](N)C2)cc2nc(-c3cc4ccccc4n3CC)n(C)c12` [Example 75, (R)-(3-Aminopiperidin-1-yl)(7-ethyl-2-(1-ethyl-1H-indol-2-yl)-1-methyl-1H-benzo[d]imidazol-5-yl)methanone], in assay [2], the IC50 was not below 10 µM.

For the molecule `CCn1c(-c2nc3cc(C(=O)N4CCC[C@@H](N)C4)ccc3n2CC)cc2ccccc21` [Example 95, (R)-(3-Aminopiperidin-1-yl)(1-ethyl-2-(1-ethyl-1H-indol-2-yl)-1H-benzo[d]imidazol-5-yl)methanone], the IC50 in assay [2] was more than 79.4 µM. Turning to `CCn1c(-c2nc3cc(C(=O)N4CCC[C@@H](N)C4)cnc3n2C)cc2ccccc21` [Example 96, (R)-(3-Aminopiperidin-1-yl)(2-(1-ethyl-1H-indol-2-yl)-3-methyl-3H-imidazo[4,5-b]pyridin-6-yl)methanone], the IC50 in assay [2] was more than 79.4 µM. Take `CCn1c(-c2nc3cc(C(=O)N4CCC[C@@H](N)C4)cc(OCCOC)c3n2C)cc2ccccc21` [Example 111, (R)-(3-Aminopiperidin-1-yl)(2-(1-ethyl-1H-indol-2-yl)-7-(2-methoxyethoxy)-1-methyl-1H-benzo[d]imidazol-5-yl)methanone]: the IC50 in assay [2] is not below 10 µM. Take `CCn1c(-c2nc3cc(C(=O)N4CCC[C@@H](N)C4)cc(OCC#N)c3n2C)cc2ccccc21` [Example 113, (R)-2-((5-(3-Aminopiperidine-1-carbonyl)-2-(1-ethyl-1H-indol-2-yl)-1-methyl-1H-benzo[d]imidazol-7-yl)oxy)acetonitrile]: in assay [2], the IC50 is not below 10 µM.

As for `CCn1c(-c2nc3cc(C(=O)N4CCC[C@@H](N)C4)cc(OCC(N)=O)c3n2C)cc2ccccc21` [Example 114, (R)-2-((5-(3-Aminopiperidine-1-carbonyl)-2-(1-ethyl-1H-indol-2-yl)-1-methyl-1H-benzo[d]imidazol-7-yl)oxy)acetamide], the IC50 in assay [2] is more than 79.4 µM. The same measure, in the same setting: next, `CCn1c(-c2nc3cc(C(=S)N4CCC[C@@H](N)C4)ccc3n2C)cc2ccccc21` [Example 135, (R)-(3-Aminopiperidin-1-yl)(2-(1-ethyl-1H-indol-2-yl)-1-methyl-1H-benzo[d]imidazol-5-yl)methanethione]: not below 10 µM.
